Assay results as given in patent US8304206B2, “Mass spectrometry assays for identifying compounds that activate deacetylases” (Sirtris Pharmaceuticals, Inc., priority 2005, dated 2012).

Molecular target: T1, SIRT1 (Homo sapiens, UniProt Q96EB6)
T1 sequence (Q96EB6 1-747): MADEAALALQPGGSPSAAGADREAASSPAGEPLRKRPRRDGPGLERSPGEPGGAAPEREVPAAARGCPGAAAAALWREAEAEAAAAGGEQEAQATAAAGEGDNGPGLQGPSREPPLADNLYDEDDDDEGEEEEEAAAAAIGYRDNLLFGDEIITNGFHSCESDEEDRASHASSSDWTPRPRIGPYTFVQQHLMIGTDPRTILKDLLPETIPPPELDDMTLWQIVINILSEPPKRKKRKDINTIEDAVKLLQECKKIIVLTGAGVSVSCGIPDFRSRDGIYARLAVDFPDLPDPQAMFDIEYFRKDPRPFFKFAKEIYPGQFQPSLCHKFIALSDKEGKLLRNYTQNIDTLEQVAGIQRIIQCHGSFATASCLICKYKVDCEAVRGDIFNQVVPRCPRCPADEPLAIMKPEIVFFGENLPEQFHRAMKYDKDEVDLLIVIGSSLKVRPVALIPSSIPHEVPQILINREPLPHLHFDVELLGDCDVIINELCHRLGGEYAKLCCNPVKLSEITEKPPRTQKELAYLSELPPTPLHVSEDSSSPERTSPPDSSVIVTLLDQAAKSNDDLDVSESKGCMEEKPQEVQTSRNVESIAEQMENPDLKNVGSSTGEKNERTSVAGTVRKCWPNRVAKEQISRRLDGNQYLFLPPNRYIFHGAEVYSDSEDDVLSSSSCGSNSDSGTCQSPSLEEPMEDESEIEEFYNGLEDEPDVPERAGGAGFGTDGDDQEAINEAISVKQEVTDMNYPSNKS
Experiment: SIRT1 mass spectrometry assay (screening for activation)
Format: biochemical
Settings: for FOLD ACTIVATION MS: activation of SIRT1, mass spectrometry; for EC50: activation of SIRT1, 0.5 μM peptide substrate (SEQ ID NO: 34), 120 μM NAD+, 10 nM SIRT1, 25 min, read-out: ED50 MS ASSAY

SMILES: COc1ccc(C(=O)Nc2ccccc2-c2cn3ccsc3n2)cc1OC [compound 203]
- FOLD ACTIVATION MS: B (Fold Activation<250%)
- EC50: < 50 µM

SMILES: COc1ccc(C(=O)Nc2cccc(-c3nc4ncccc4s3)c2)c(OC)c1OC [compound 198]
- FOLD ACTIVATION MS: B (Fold Activation<250%)

SMILES: c1cc(Nc2nc3ccccc3s2)nc(-c2nc3ncccc3o2)c1 [compound 104]
- FOLD ACTIVATION MS: B (Fold Activation<250%)
- EC50: < 50 µM

SMILES: COc1cc(C(=O)Nc2ccccc2-c2cc3ccccc3[nH]2)cc(OC)c1OC [compound 255]
- FOLD ACTIVATION MS: B (Fold Activation<250%)
- EC50: < 50 µM

SMILES: COc1cc(C(=O)Nc2ccc(-c3nc4ccccc4[nH]3)cc2)cc(OC)c1OC [compound 263]
- FOLD ACTIVATION MS: B (Fold Activation<250%)

SMILES: c1cc(Nc2nc3ccccc3o2)cc(-c2nc3ncccc3o2)c1 [compound 93]
- FOLD ACTIVATION MS: B (Fold Activation<250%)

SMILES: COc1ccc(C(=O)Nc2ccc(-c3nc4ccccc4[nH]3)cc2)c(OC)c1 [compound 262]
- FOLD ACTIVATION MS: B (Fold Activation<250%)
- EC50: < 50 µM

SMILES: COc1ccc(C(=O)Nc2ccc(-c3nc4ncccc4s3)cc2)cc1OC [compound 197]
- FOLD ACTIVATION MS: B (Fold Activation<250%)
- EC50: < 50 µM

SMILES: COc1cc(OC)cc(C(=O)Nc2sccc2-c2nc3ccccc3s2)c1 [compound 146]
- FOLD ACTIVATION MS: B (Fold Activation<250%)
- EC50: < 50 µM

SMILES: CN(C(=O)Nc1ccccc1-c1nc2ccccc2[nH]1)c1ccccc1 [compound 169]
- FOLD ACTIVATION MS: B (Fold Activation<250%)
- EC50: < 50 µM

SMILES: COc1cc(NC(=O)c2cccc(-c3nc4ncccc4o3)c2)cc(OC)c1OC [compound 102]
- FOLD ACTIVATION MS: A (Fold activation>250%)

SMILES: COc1cccc(C(=O)Nc2cccc(-c3nc4cccnc4s3)c2)c1OC [compound 214]
- FOLD ACTIVATION MS: B (Fold Activation<250%)

SMILES: CN(C)c1cccc(C(=O)Nc2cccc(-c3nc4nc(CN5CCNCC5)ccc4o3)c2)c1 [compound 166]
- FOLD ACTIVATION MS: B (Fold Activation<250%)

SMILES: COc1ccc(C(=O)Nc2ccccc2-c2cc3ccccc3[nH]2)cc1OC [compound 254]
- FOLD ACTIVATION MS: B (Fold Activation<250%)
- EC50: < 50 µM

SMILES: COc1ccc(C(=O)Nc2cccc(-c3nc4cccnc4s3)c2)cc1 [compound 216]
- FOLD ACTIVATION MS: B (Fold Activation<250%)
- EC50: < 50 µM

SMILES: COc1cc(C(=O)Nc2ccccc2-c2cn3ccccc3n2)cc(OC)c1OC [compound 267]
- FOLD ACTIVATION MS: B (Fold Activation<250%)
- EC50: < 50 µM

SMILES: COc1cc(C(=O)Nc2ccccc2-c2cn3cc(CN(C)C)sc3n2)cc(OC)c1OC [compound 179]
- FOLD ACTIVATION MS: A (Fold activation>250%)
- EC50: < 50 µM

SMILES: COc1ccc(C(=O)Nc2cccc(-c3cc4cccnc4o3)c2)c(OC)c1 [compound 191]
- FOLD ACTIVATION MS: B (Fold Activation<250%)
- EC50: < 50 µM

SMILES: COc1ccc(NC(=O)c2cccc(-c3nc4ncccc4o3)c2)c(OC)c1 [compound 100]
- FOLD ACTIVATION MS: B (Fold Activation<250%)

SMILES: O=C(Nc1cccc(-c2nc3ccncc3s2)c1)c1cnn(-c2ccccc2)c1C(F)(F)F [compound 238]
- FOLD ACTIVATION MS: B (Fold Activation<250%)
- EC50: < 50 µM

SMILES: COc1ccc(C(=O)Nc2cccc(-c3nc4ncccc4s3)c2)cc1OC [compound 201]
- FOLD ACTIVATION MS: B (Fold Activation<250%)

SMILES: CN(C)c1cccc(C(=O)Nc2ccccc2-c2cn3ccccc3n2)c1 [compound 268]
- FOLD ACTIVATION MS: B (Fold Activation<250%)
- EC50: < 50 µM

SMILES: COc1ccc(C(=O)Nc2ccccc2-n2cccn2)cc1OC [compound 177]
- FOLD ACTIVATION MS: B (Fold Activation<250%)

SMILES: CN(C)c1cccc(C(=O)Nc2cc(-c3nc4ncccc4o3)ccn2)c1 [compound 76]
- FOLD ACTIVATION MS: B (Fold Activation<250%)

SMILES: COc1ccc(C(=O)Nc2ccccc2-c2cn3cc(CN4CCNCC4)sc3n2)cc1OC [compound 270]
- FOLD ACTIVATION MS: A (Fold activation>250%)

SMILES: O=C(Nc1cccc(-c2nc3ccncc3s2)c1)c1ccc(-c2ccccc2)o1 [compound 241]
- FOLD ACTIVATION MS: B (Fold Activation<250%)
- EC50: < 50 µM

SMILES: COc1cc(SC)ccc1C(=O)Nc1cccc(-c2nncn2C)c1 [compound 83]
- FOLD ACTIVATION MS: B (Fold Activation<250%)

SMILES: O=C(Nc1cccc(-c2nc3ccncc3s2)c1)Nc1ccc2c(c1)OCO2 [compound 99]
- FOLD ACTIVATION MS: A (Fold activation>250%)
- EC50: < 50 µM

SMILES: O=C(Nc1cccc(-c2nc3ccncc3s2)c1)c1cc(C(F)(F)F)ccc1C(F)(F)F [compound 248]
- FOLD ACTIVATION MS: B (Fold Activation<250%)

SMILES: COc1ccc(C(=O)Nc2ccc(-c3cc4cccnc4o3)cc2)c(OC)c1 [compound 190]
- FOLD ACTIVATION MS: B (Fold Activation<250%)
- EC50: < 50 µM

SMILES: COc1cc(C(=O)Nc2cc(-c3nc4ncccc4o3)ccn2)cc(OC)c1OC [compound 75]
- FOLD ACTIVATION MS: B (Fold Activation<250%)

SMILES: COc1cc(OC)cc(C(=O)Nc2cccc(-c3nc4cccnc4s3)c2)c1 [compound 215]
- FOLD ACTIVATION MS: B (Fold Activation<250%)
- EC50: < 50 µM

SMILES: COc1ccc(C(=O)Nc2ccccc2-c2nc3ncccc3o2)cc1OC [compound 96]
- FOLD ACTIVATION MS: B (Fold Activation<250%)
- EC50: < 50 µM

SMILES: O=S(=O)(Nc1cccc(-c2nc3ccncc3s2)c1)c1ccc(OC(F)(F)F)cc1 [compound 239]
- FOLD ACTIVATION MS: B (Fold Activation<250%)
- EC50: < 50 µM

SMILES: COc1ccc(C(=O)Nc2ncccc2-c2nc3ccccc3[nH]2)cc1OC [compound 276]
- FOLD ACTIVATION MS: B (Fold Activation<250%)
- EC50: < 50 µM

SMILES: COc1ccc(C(=O)Nc2cccc(-c3nc4cccnc4[nH]3)c2)c(OC)c1OC [compound 181]
- FOLD ACTIVATION MS: A (Fold activation>250%)
- EC50: < 50 µM

SMILES: CN(C)CCNC(=O)c1cc(NC(=O)c2cccc(N(C)C)c2)cc(-c2nc3ncccc3o2)c1 [compound 154]
- FOLD ACTIVATION MS: A (Fold activation>250%)

SMILES: CN(C)c1cccc(C(=O)Nc2ccccc2-c2nc3ncccc3o2)c1 [compound 97]
- FOLD ACTIVATION MS: B (Fold Activation<250%)
- EC50: < 50 µM

SMILES: COc1ccc(C(=O)Nc2cccc(-c3nc4ccccc4[nH]3)c2)c(OC)c1 [compound 211]
- FOLD ACTIVATION MS: B (Fold Activation<250%)
- EC50: < 50 µM

SMILES: COc1ccc(C(=O)Nc2cc(C(=O)N3CCNCC3)cc(-c3nc4ncccc4o3)c2)cc1OC [compound 164]
- FOLD ACTIVATION MS: B (Fold Activation<250%)

SMILES: COc1ccc(C(=O)Nc2cc(CN(C)C)cc(-c3nc4ncccc4o3)c2)c(OC)c1 [compound 158]
- FOLD ACTIVATION MS: B (Fold Activation<250%)

SMILES: COc1ccc(C(=O)Nc2cc(CN3CCNCC3)cc(-c3nc4ncccc4o3)c2)c(OC)c1 [compound 161]
- FOLD ACTIVATION MS: A (Fold activation>250%)

SMILES: COc1cc(C(=O)Nc2ccccc2-c2cn3c(CN4CCNCC4)csc3n2)cc(OC)c1OC [compound 208]
- FOLD ACTIVATION MS: A (Fold activation>250%)

SMILES: COc1cc(C)ccc1C(=O)Nc1cccc(-c2nc3ncccc3s2)c1 [compound 199]
- FOLD ACTIVATION MS: B (Fold Activation<250%)
- EC50: < 50 µM

SMILES: O=C(Nc1cccc(-c2nc3ccncc3s2)c1)c1ccco1 [compound 221]
- FOLD ACTIVATION MS: B (Fold Activation<250%)

SMILES: COc1cc(C(=O)Nc2cccc(-c3nc4ccccc4[nH]3)n2)cc(OC)c1OC [compound 259]
- FOLD ACTIVATION MS: A (Fold activation>250%)
- EC50: < 50 µM

SMILES: COc1cc(C(=O)Nc2ccccc2-n2cccn2)cc(OC)c1OC [compound 176]
- FOLD ACTIVATION MS: B (Fold Activation<250%)

SMILES: COc1ccc(C(=O)Nc2ccccc2-c2cn3c(CN(C)C)csc3n2)cc1OC [compound 205]
- FOLD ACTIVATION MS: A (Fold activation>250%)

SMILES: COc1ccc(NC(=O)c2cccc(-c3nc4ncccc4o3)c2)cc1OC [compound 101]
- FOLD ACTIVATION MS: A (Fold activation>250%)

SMILES: CN(C)c1cccc(C(=O)Nc2cccc(-c3nc4ncccc4s3)c2)c1 [compound 200]
- FOLD ACTIVATION MS: B (Fold Activation<250%)
- EC50: < 50 µM

SMILES: Cc1ccc2oc(-c3cccc(NC(=O)c4cccc(N(C)C)c4)c3)nc2n1 [compound 167]
- FOLD ACTIVATION MS: B (Fold Activation<250%)

SMILES: COc1cc(C(=O)Nc2cc(CN(C)C)cc(-c3nc4ccncc4s3)c2)cc(OC)c1OC [compound 174]
- FOLD ACTIVATION MS: A (Fold activation>250%)

SMILES: COc1ccc(C(=O)Nc2ccc(-c3nc4cccnc4[nH]3)cc2)cc1OC [compound 150]
- FOLD ACTIVATION MS: B (Fold Activation<250%)
- EC50: < 50 µM

SMILES: COc1cc(C(=O)Nc2cccc(-c3nc4ncccn4c3C)c2)cc(OC)c1OC [compound 219]
- FOLD ACTIVATION MS: A (Fold activation>250%)

SMILES: COc1ccc(C(=O)Nc2cccc(-c3csc(C)n3)c2)cc1OC [compound 80]
- FOLD ACTIVATION MS: B (Fold Activation<250%)

SMILES: COc1ccc(C(=O)Nc2cc(CN3CCNCC3)cc(-c3nc4ncccc4o3)c2)cc1OC [compound 159]
- FOLD ACTIVATION MS: B (Fold Activation<250%)

SMILES: COc1ccc(C(=O)Nc2ccccc2-c2cn3ccccc3n2)cc1OC [compound 266]
- FOLD ACTIVATION MS: A (Fold activation>250%)
- EC50: < 50 µM

SMILES: Cc1nc(-c2cccc(Nc3nc4ccccc4o3)c2)cs1 [compound 92]
- FOLD ACTIVATION MS: B (Fold Activation<250%)
